According to patent US6313177A, “D-mannitol derivatives as HIV aspartyl protease inhibitors” (Pharmacor Inc., priority 1999, dated 2001):
Like-named read-outs stand apart in the source and are kept apart here.

Target: T1, recombinant HIV-1 protease (Human immunodeficiency virus type 1 group M subtype B, UniProt P04585)
T1 construct: recombinant HIV-1 protease; purchased Bachem Bioscience
Assay: Fluorometric (FRET) enzymatic assay for the inhibition constant (Ki) against the HIV protease
Assay type: biochemical
Source text: Enzymatic Assay for Determining the Inhibition Constant (Ki) of Synthetic Compounds Prepared Against the HIV Protease
This is a fluorometric assay based on the cleavage by protease of a substrate carrying a donor group (EDANS, excitation at 340 nm and emission at 490 nm) and an acceptor group (DABCYL) on each side of the cleavage site, interacting together through fluorescence resonance energy transfer (FRET). Cleavage of the substrate by protease stops energy exchange between the two groups, resulting in a time-dependent increase in fluorescence intensity that is linearly related to the extent of substrate hydrolysis.
The enzymatic assay is done at 30° C. in a spectrophotometer microcuvet, in a total volume of 400 μL. The apparatus used for readings is a UV-visible Cary 1 spectrophotometer made by Varian. The reaction is run first in the absence of protease inhibitors for 2 min, using 355 μL of buffer at pH 4.7 (sodium acetate 100 mM, NaCl 1 M, EDTA 1 mM, DTT 1 mM, dimethylsulfoxide 10%, and BSA 1 mg/mL), 40 μL of substrate H-2930 from Molecular Probes (final concentration 10 μM) and 5 μL of recombinant HIV-1 protease (final concentration 18.3 nM) purchased from Bachem Bioscience. Fluorescence readings at […] are taken continuously during the reaction, allowing determination of the enzyme's initial velocity (v0). At the end of the 2 min incubation, the potential inhibitor at a defined concentration in a volume of 2 μL is added to the reaction, and fluorescence readings are taken for another 2 min, allowing determination of enzyme velocity (vi) in the presence of the inhibitory compound. Several concentrations of the putative inhibitors are tested in the assay. After calculation of vo and vi, the inhibition constant (Ki) of the compound is determined using the equation of Henderson: [formula]
and [I]=inhibitor concentration, [S ]=substrate concentration, Km=Michaelis-Menten constant, Kiapp =apparent Ki
Note that the Michaelis-Menten constant of HIV protease is determined by running the assay without inhibitors, using several concentrations of substrate, and plotting the results as a Cornish-Bowden graph with the ratio substrate concentration/velocity as the ordinate and substrate concentration as the abscissa.

[1] = Table 1, benzylated D-mannitol derivatives, pH 4.7, 30° C., substrate 10 μM, protease 18.3 nM

| Compound | Ki [1] | Ki |
| --- | --- | --- |
| O[C@@H]([C@H](O)[C@@H](COCc1ccccc1F)OCc1ccc(F)cc1)[C@@H](COCc1ccccc1F)OCc1ccc(F)cc1 [Compound 40, 1,6-di-O-(2-fluorobenzyl)-2,5-di-O-(4-fluorobenzyl)-D-mannitol] | 0.28 µM | – |
| O=C(O)c1ccc(CO[C@H](COCc2ccccc2)[C@@H](O)[C@H](O)[C@@H](COCc2ccccc2)OCc2ccc(C(=O)O)cc2)cc1 [Compound 43, 1,6-di-O-benzyl-2,5-di-O-(4-carboxybenzyl)-D-mannitol] | 26 µM | – |
| NC(=O)c1ccc(CO[C@H](COCc2ccccc2)[C@@H](O)[C@H](O)[C@@H](COCc2ccccc2)OCc2ccc(C(N)=O)cc2)cc1 [Compound 44, 1,6-di-O-benzyl-2,5-di-O-(4-carboxamidobenzyl)-D-mannitol] | 20 µM | – |
| OCc1ccc(CO[C@H](COCc2ccccc2)[C@@H](O)[C@H](O)[C@@H](COCc2ccccc2)OCc2ccc(CO)cc2)cc1 [Compound 45, 1,6-di-O-benzyl-2,5-di-O-(4-hydroxymethylbenzyl)-D-mannitol] | – | 10 µM |
| NCc1ccc(CO[C@H](COCc2ccccc2)[C@@H](O)[C@H](O)[C@@H](COCc2ccccc2)OCc2ccc(CN)cc2)cc1 [Compound 46, 1,6-di-O-benzyl-2,5-di-O-(4-aminomethylbenzyl)-D-mannitol] | 27 µM | – |
| OCc1ccc(COC[C@@H](OCc2ccccc2)[C@@H](O)[C@H](O)[C@@H](COCc2ccc(CO)cc2)OCc2ccccc2)cc1 [Compound 48, 1,6-di-(4-hydroxymethylbenzyl)-2,5-dibenzyl-D-mannitol] | 1.2 µM | – |
| O=Cc1ccc(CO[C@H](COCc2ccccc2)[C@@H](O)[C@H](O)[C@@H](COCc2ccccc2)OCc2ccc(C=O)cc2)cc1 [Compound 49, 1,6-di-O-benzyl-2,5-di-O-(4-formylbenzyl)-D-mannitol] | 28 µM | – |
| Cc1ccc(COC[C@@H](OCc2ccc(C)cc2)[C@@H](O)[C@H](O)[C@@H](COCc2ccc(C)cc2)OCc2ccc(C)cc2)cc1 [Compound 50, 1,2,5,6-tetra-O-(4-methylbenzyl)-D-mannitol] | > 1 µM | – |
| O=C(O)c1ccc(COC[C@@H](OCc2ccccc2)[C@@H](O)[C@H](O)[C@@H](COCc2ccc(C(=O)O)cc2)OCc2ccccc2)cc1 [Compound 51, 1,6-di-O-(4-carboxybenzyl)-2,5-di-O-benzyl-D-mannitol] | 5 µM | – |
| O[C@@H]([C@H](O)[C@@H](COCc1ccc(F)cc1)OCc1ccc(F)cc1)[C@@H](COCc1ccc(F)cc1)OCc1ccc(F)cc1 [Compound 52, 1,2,5,6-tetra-O-(4-fluorobenzyl)-D-mannitol] | – | 1.6 µM |
| O[C@@H]([C@H](O)[C@@H](COCc1cccc(F)c1)OCc1ccccc1)[C@@H](COCc1cccc(F)c1)OCc1ccccc1 [Compound 53, 1,6-di-O-(3-fluorobenzyl)-2,5-di-O-(benzyl)-D-mannitol] | 1.5 µM | – |
| O[C@@H]([C@H](O)[C@@H](COCc1ccc(Br)cc1)OCc1ccccc1)[C@@H](COCc1ccc(Br)cc1)OCc1ccccc1 [Compound 54, 1,6-di-O-(4-bromobenzyl)-2,5-di-O-benzyl-D-mannitol] | > 3 µM | – |
| O[C@@H]([C@H](O)[C@@H](COCc1ccc(Cl)cc1)OCc1ccccc1)[C@@H](COCc1ccc(Cl)cc1)OCc1ccccc1 [Compound 55, 1,6-di-O-(4-chlorobenzyl)-2,5-di-O-benzyl-D-mannitol] | – | 5.2 µM |
| Cc1ccc(CO[C@H](COCc2ccccc2F)[C@@H](O)[C@H](O)[C@@H](COCc2ccccc2F)OCc2ccc(C)cc2)cc1 [Compound 56, 1,6-di-O-(2-fluorobenzyl)-2,5-di-O-(4-methylbenzyl)-D-mannitol] | 3.5 µM | – |
| O[C@@H]([C@H](O)[C@@H](COCc1ccccc1F)OCc1cccc(F)c1)[C@@H](COCc1ccccc1F)OCc1cccc(F)c1 [Compound 57, 1,6-di-O-(2-fluorobenzyl)-2,5-di-O-(3-fluorobenzyl)-D-mannitol] | 1.5 µM | – |
